ChEMBL document CHEMBL3044696, “Synthesis, antimalarial-, and antibacterial activity evaluation of some new 4-aminoquinoline derivatives” (2013)

Legend:
Bacillus cereus [1] = assay: Antibacterial activity against Bacillus cereus ATCC 10876 assessed as growth inhibition at 25 ug/disk after 24 hr by Kirby-Bauer disk diffusion method; format: functional; conditions: ATCC 10876, 24 h, read-out: DIZ
Bacillus subtilis [2] = assay: Antibacterial activity against Bacillus subtilis ATCC 11774 assessed as growth inhibition at 25 ug/disk after 24 hr by Kirby-Bauer disk diffusion method; format: functional; conditions: ATCC 11774, 24 h, read-out: DIZ
Bacillus subtilis [3] = assay: Antibacterial activity against Bacillus subtilis ATCC 11774 assessed as growth inhibition at 50 ug/disk after 24 hr by Kirby-Bauer disk diffusion method; format: functional; conditions: ATCC 11774, 24 h, read-out: DIZ
Plasmodium falciparum [4] = assay: Antimalarial activity against chloroquine-sensitive Plasmodium falciparum 3D7 infected human RBC assessed as dead ring and trophozoite stage of parasite at 50 ug/mL after 40 hr by Giemsa staining-based light microscopic analysis relative to control; format: functional
Pseudomonas aeruginosa [5] = assay: Antibacterial activity against Pseudomonas aeruginosa ATCC 10662 assessed as growth inhibition at 25 ug/disk after 24 hr by Kirby-Bauer disk diffusion method; format: functional; conditions: ATCC 10662, 24 h, read-out: DIZ
Klebsiella pneumoniae [6] = assay: Antibacterial activity against Klebsiella pneumoniae ATCC 33495 assessed as growth inhibition at 25 ug/disk after 24 hr by Kirby-Bauer disk diffusion method; format: functional; conditions: ATCC 33495, 24 h, read-out: DIZ
Escherichia coli [7] = assay: Antibacterial activity against Escherichia coli ATCC 10536 assessed as growth inhibition at 25 ug/disk after 24 hr by Kirby-Bauer disk diffusion method; format: functional; conditions: ATCC 10536, 24 h, read-out: DIZ
Staphylococcus aureus [8] = assay: Antibacterial activity against Staphylococcus aureus ATCC BAA 1026 assessed as growth inhibition at 25 ug/disk after 24 hr by Kirby-Bauer disk diffusion method; format: functional; conditions: ATCC BAA 1026, 24 h, read-out: DIZ
Klebsiella pneumoniae [9] = assay: Antibacterial activity against Klebsiella pneumoniae ATCC 33495 assessed as growth inhibition at 50 ug/disk after 24 hr by Kirby-Bauer disk diffusion method; format: functional; conditions: ATCC 33495, 24 h, read-out: DIZ
Staphylococcus aureus [10] = assay: Antibacterial activity against Staphylococcus aureus ATCC BAA 1026 assessed as growth inhibition at 50 ug/disk after 24 hr by Kirby-Bauer disk diffusion method; format: functional; conditions: ATCC BAA 1026, 24 h, read-out: DIZ
Escherichia coli [11] = assay: Antibacterial activity against Escherichia coli ATCC 10536 assessed as growth inhibition at 50 ug/disk after 24 hr by Kirby-Bauer disk diffusion method; format: functional; conditions: ATCC 10536, 24 h, read-out: DIZ
Pseudomonas aeruginosa [12] = assay: Antibacterial activity against Pseudomonas aeruginosa ATCC 10662 assessed as growth inhibition at 50 ug/disk after 24 hr by Kirby-Bauer disk diffusion method; format: functional; conditions: ATCC 10662, 24 h, read-out: DIZ
Plasmodium falciparum [13] = assay: Antimalarial activity against chloroquine-sensitive Plasmodium falciparum 3D7 infected human RBC assessed as dead ring and trophozoite stage of parasite at 0.4 ug/mL after 40 hr by Giemsa staining-based light microscopic analysis relative to control
Pseudomonas aeruginosa [14] = assay: Antibacterial activity against Pseudomonas aeruginosa ATCC 10662 assessed as growth inhibition at 5 ug/disk after 24 hr by Kirby-Bauer disk diffusion method; format: functional; conditions: ATCC 10662, 24 h, read-out: DIZ
Klebsiella pneumoniae [15] = assay: Antibacterial activity against Klebsiella pneumoniae ATCC 33495 assessed as growth inhibition at 5 ug/disk after 24 hr by Kirby-Bauer disk diffusion method; format: functional; conditions: ATCC 33495, 24 h, read-out: DIZ
Escherichia coli [16] = assay: Antibacterial activity against Escherichia coli ATCC 10536 assessed as growth inhibition at 5 ug/disk after 24 hr by Kirby-Bauer disk diffusion method; format: functional; conditions: ATCC 10536, 24 h, read-out: DIZ
Staphylococcus aureus [17] = assay: Antibacterial activity against Staphylococcus aureus ATCC BAA 1026 assessed as growth inhibition at 5 ug/disk after 24 hr by Kirby-Bauer disk diffusion method; format: functional; conditions: ATCC BAA 1026, 24 h, read-out: DIZ
Bacillus cereus [18] = assay: Antibacterial activity against Bacillus cereus ATCC 10876 assessed as growth inhibition at 5 ug/disk after 24 hr by Kirby-Bauer disk diffusion method; format: functional; conditions: ATCC 10876, 24 h, read-out: DIZ
Bacillus subtilis [19] = assay: Antibacterial activity against Bacillus subtilis ATCC 11774 assessed as growth inhibition at 5 ug/disk after 24 hr by Kirby-Bauer disk diffusion method; format: functional; conditions: ATCC 11774, 24 h, read-out: DIZ

| Compound | zone of inhibition at 25 µg/disc (Bacillus cereus [1]) [mm] | zone of inhibition at 25 µg/disc (Bacillus subtilis [2]) [mm] | zone of inhibition at 50 µg/disc (Bacillus subtilis [3]) [mm] | Activity (Plasmodium falciparum [4]) [%] | zone of inhibition at 25 µg/disc (Pseudomonas aeruginosa [5]) [mm] | zone of inhibition at 25 µg/disc (Klebsiella pneumoniae [6]) [mm] | zone of inhibition at 25 µg/disc (Escherichia coli [7]) [mm] | zone of inhibition at 25 µg/disc (Staphylococcus aureus [8]) [mm] | zone of inhibition at 50 µg/disc (Klebsiella pneumoniae [9]) [mm] | zone of inhibition at 50 µg/disc (Staphylococcus aureus [10]) [mm] | zone of inhibition at 50 µg/disc (Escherichia coli [11]) [mm] | zone of inhibition at 50 µg/disc (Pseudomonas aeruginosa [12]) [mm] | Activity (Plasmodium falciparum [13]) [%] | zone of inhibition at 5 µg/disc (Pseudomonas aeruginosa [14]) [mm] | zone of inhibition at 5 µg/disc (Klebsiella pneumoniae [15]) [mm] | zone of inhibition at 5 µg/disc (Escherichia coli [16]) [mm] | zone of inhibition at 5 µg/disc (Staphylococcus aureus [17]) [mm] | zone of inhibition at 5 µg/disc (Bacillus cereus [18]) [mm] | zone of inhibition at 5 µg/disc (Bacillus subtilis [19]) [mm] |
| --- | --- | --- | --- | --- | --- | --- | --- | --- | --- | --- | --- | --- | --- | --- | --- | --- | --- | --- | --- |
| Cc1ccc(C2SCCC(=O)N2CCCNc2ccnc3cc(Cl)ccc23)s1 (centres undefined) | 13.9 | 14.2 | 23.9 | 22 | 13.9 | 13.9 | 14.2 | 14 | 23.9 | 23.9 |  |  |  |  |  |  |  |  |  |
| O=C1CCSC(c2ccccc2F)N1CCCNc1ccnc2cc(Cl)ccc12 (centres undefined) | 14.3 | 18.8 |  | 39 | 14.1 | 14.3 | 14.3 | 14.2 |  | 23.9 |  |  |  |  |  |  |  |  |  |
| COc1ccc(C2SCCC(=O)N2CCCNc2ccnc3cc(Cl)ccc23)cc1 (centres undefined) | 14.3 | 14.2 | 23.3 | 32 | 14.3 | 14.1 | 14.2 | 14.1 | 24.2 | 24.1 | 24.4 |  |  |  |  |  |  |  |  |
| O=C1CCSC(c2cccc(O)c2)N1CCCNc1ccnc2cc(Cl)ccc12 (centres undefined) | 14.1 | 13.8 |  | 39.5 | 13.9 | 14 | 13.9 | 14.3 |  |  | 24.3 | 23.9 |  |  |  |  |  |  |  |
| O=C1CCSC(c2ccco2)N1CCCNc1ccnc2cc(Cl)ccc12 (centres undefined) | 14.2 | 14.1 | 23.5 | 38.5 | 13.7 | 14.2 | 14 | 14.3 | 24.1 | 24.2 | 24.1 |  |  |  |  |  |  |  |  |
| CCC1SCCC(=O)N1CCCNc1ccnc2cc(Cl)ccc12 (centres undefined) | 13.5 | 13.1 | 23.2 | 18.5 | 13.5 | 13.2 | 13.7 | 12.9 | 23.1 | 23.1 | 23.4 | 23.1 |  |  |  |  |  |  |  |
| CN(C)c1ccc(C2SCCC(=O)N2CCCNc2ccnc3cc(Cl)ccc23)cc1 (centres undefined) | 14 | 14.3 | 23.7 | 25 | 13.7 | 14.1 | 14.3 | 13.9 | 24.1 | 23.9 | 23.9 |  |  |  |  |  |  |  |  |
| CCN(CC)CCCC(C)Nc1ccnc2cc(Cl)ccc12 (centres undefined) [CHLOROQUINE] |  |  |  |  |  |  |  |  |  |  |  |  | 67 |  |  |  |  |  |  |
| CC1COc2c(N3CCN(C)CC3)c(F)cc3c(=O)c(C(=O)O)cn1c23 (centres undefined) [OFLOXACIN] |  |  |  |  |  |  |  |  |  |  |  |  |  | 20.8 | 20.3 | 21.5 | 21.7 | 20.3 | 20.7 |
